Like-named read-outs stand apart in the source and are kept apart here.
Experiments:
[1] = target: T1, XIAP His-BIR2 (124-240/C202A/C213G) (Homo sapiens, UniProt P98170, C202A/C213G); test: XIAP-BIR2/SMAC Peptide AlphaScreen Assay; format: binding
T1 construct: additions of His-BIR2 (124-240/C202A/C213G), Biotinylated SMAC peptide
Description: A. XIAP-BIR2/SMAC Peptide AlphaScreen Assay Assays were performed in white, flat-bottom, 384-well ProxiPlates (Perkin Elmer). […] The reaction was incubated at room temperature for 60 minutes. After 60 minutes, 2.5 μL of Alphascreen detection reagent (Perkin Elmer) was added to the reaction mixture and incubated at room temperature in the dark for 120 minutes. The Alphascreen signal generated by the reaction was detected on the Envision Plate Reader. […] Compounds were dissolved at 10 mM in dimethylsulfoxide (DMSO) and evaluated at eleven concentrations. IC50 values were derived by non-linear regression analysis.

[2] = target: N-His-Tb-BIR3(241-356, XIAP) (Homo sapiens, UniProt P98170); test: XIAP-BIR3 SMAC Peptide Fluorescence Polarization Assay (FPA); format: binding
[3] = XIAP BIR2, AlphaScreen, Table 2, read-out: BIR2 IC50
[4] = XIAP BIR2, Alphascreen, Table 4, read-out: BIR2 Alpha Screen IC50

T1 sequence (P98170 124-240 C202A/C213G): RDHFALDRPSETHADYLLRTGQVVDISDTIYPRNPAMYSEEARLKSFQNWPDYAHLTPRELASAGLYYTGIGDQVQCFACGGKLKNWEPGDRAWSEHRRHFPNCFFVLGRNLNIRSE
Chain of N-His-Tb-BIR3(241-356, XIAP) (P98170 241-356): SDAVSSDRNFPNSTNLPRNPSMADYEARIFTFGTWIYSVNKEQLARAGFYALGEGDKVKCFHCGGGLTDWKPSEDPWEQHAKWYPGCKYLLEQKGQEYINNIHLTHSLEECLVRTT

Row | IC50 ([2]; XIAP BIR3, FPA, Table 2, read-out: BIR3 IC50) [µM] | SMILES | IC50 [1, 3] [µM] | IC50 [2] [µM] | IC50 [1, 4] [µM]
1 | – | CN[C@@H](C)C(=O)N[C@H](C(=O)N1C[C@@H]2C[C@H]1C(=O)N[C@@H](Cc1ccc(-c3ccccc3)cc1)C(=O)N[C@H](C(=O)O)Cc1ccc(cc1)COc1cn(nn1)[C@H]1C[C@@H](C(=O)N[C@@H](Cc3ccc(-c4ccccc4)cc3)C(=O)N[C@H](C(=O)O)Cc3ccc(cc3)OCc3cn2nn3)N(C(=O)[C@@H](NC(=O)[C@H](C)NC)C(C)C)C1)C(C)C [Compound 114] | < 2 | < 0.05 | –
2 | – | CN[C@@H](C)C(=O)N[C@H](C(=O)N1C[C@@H]2C[C@H]1C(=O)N[C@@H](Cc1ccc(OCc3ccccc3)cc1)C(=O)N[C@H](C(=O)O)Cc1ccc(cc1)COc1cn(nn1)[C@H]1C[C@@H](C(=O)N[C@@H](Cc3ccc(OCc4ccccc4)cc3)C(=O)N[C@H](C(=O)O)Cc3ccc(cc3)OCc3cn2nn3)N(C(=O)[C@@H](NC(=O)[C@H](C)NC)C(C)C)C1)C(C)C [Compound 115] | 2 to 12 | < 0.05 | –
3 | – | CC[C@H](NC(=O)[C@H](C)NC)C(=O)N1C[C@@H]2C[C@H]1C(=O)N[C@@H](Cc1ccccc1)C(=O)N[C@H](C(=O)O)Cc1ccc(cc1)OCc1cn(nn1)[C@H]1C[C@@H](C(=O)N[C@@H](Cc3ccccc3)C(=O)N[C@H](C(=O)O)Cc3ccc(cc3)OCc3cn2nn3)N(C(=O)[C@H](CC)NC(=O)[C@H](C)NC)C1 [Compound 117] | < 2 | < 0.05 | –
4 | – | CN[C@@H](C)C(=O)N[C@@H](C)C(=O)N1C[C@@H]2C[C@H]1C(=O)N[C@@H](Cc1ccccc1)C(=O)N[C@H](C(=O)O)Cc1ccc(cc1)OCc1cn(nn1)[C@H]1C[C@@H](C(=O)N[C@@H](Cc3ccccc3)C(=O)N[C@H](C(=O)O)Cc3ccc(cc3)OCc3cn2nn3)N(C(=O)[C@H](C)NC(=O)[C@H](C)NC)C1 [Compound 118] | > 12 | 0.05 to 0.1 | –
5 | – | CN[C@@H](C)C(=O)N[C@@H](CC(C)C)C(=O)N1C[C@@H]2C[C@H]1C(=O)N[C@@H](Cc1ccccc1)C(=O)N[C@H](C(=O)O)Cc1ccc(cc1)OCc1cn(nn1)[C@H]1C[C@@H](C(=O)N[C@@H](Cc3ccccc3)C(=O)N[C@H](C(=O)O)Cc3ccc(cc3)OCc3cn2nn3)N(C(=O)[C@H](CC(C)C)NC(=O)[C@H](C)NC)C1 [Compound 119] | < 2 | < 0.05 | –
6 | – | CN[C@@H](C)C(=O)N[C@H](C(=O)N1C[C@@H]2C[C@H]1C(=O)N[C@@H](Cc1ccccc1)C(=O)N[C@H](C(=O)O)Cc1ccc(cc1)OCc1cn(nn1)[C@H]1C[C@@H](C(=O)N[C@@H](Cc3ccccc3)C(=O)N[C@H](C(=O)O)Cc3ccc(cc3)OCc3cn2nn3)N(C(=O)[C@@H](NC(=O)[C@H](C)NC)C2CCCCC2)C1)C1CCCCC1 [Compound 120] | < 2 | < 0.05 | –
7 | > 0.1 | CN[C@@H](C)C(=O)NCC1(C(=O)N2C[C@@H]3C[C@H]2C(=O)N[C@@H](Cc2ccccc2)C(=O)N[C@H](C(=O)O)Cc2ccc(cc2)OCc2cn(nn2)[C@H]2C[C@@H](C(=O)N[C@@H](Cc4ccccc4)C(=O)N[C@H](C(=O)O)Cc4ccc(cc4)OCc4cn3nn4)N(C(=O)C3(CNC(=O)[C@H](C)NC)CC3)C2)CC1 [Compound 121] | > 12 | – | –
8 | – | CN[C@@H](C)C(=O)N[C@H](C(=O)N1C[C@@H]2C[C@H]1C(=O)N[C@@H](CC1CCCCC1)C(=O)N[C@H](C(=O)O)Cc1ccc(cc1)OCc1cn(nn1)[C@H]1C[C@@H](C(=O)N[C@@H](CC3CCCCC3)C(=O)N[C@H](C(=O)O)Cc3ccc(cc3)OCc3cn2nn3)N(C(=O)[C@@H](NC(=O)[C@H](C)NC)C(C)C)C1)C(C)C [Compound 122] | 2 to 12 | > 0.1 | –
9 | – | CN[C@@H](C)C(=O)N[C@H](C(=O)N1C[C@@H]2C[C@H]1C(=O)N[C@@H](COCc1ccccc1)C(=O)N[C@H](C(=O)O)Cc1ccc(cc1)OCc1cn(nn1)[C@H]1C[C@@H](C(=O)N[C@@H](COCc3ccccc3)C(=O)N[C@H](C(=O)O)Cc3ccc(cc3)OCc3cn2nn3)N(C(=O)[C@@H](NC(=O)[C@H](C)NC)C(C)C)C1)C(C)C [Compound 123] | 2 to 12 | > 0.1 | –
10 | – | CN[C@@H](C)C(=O)N[C@H](C(=O)N1C[C@@H]2C[C@H]1C(=O)N[C@@H](Cc1csc3ccccc13)C(=O)N[C@H](C(=O)O)Cc1ccc(cc1)OCc1cn(nn1)[C@H]1C[C@@H](C(=O)N[C@@H](Cc3csc4ccccc34)C(=O)N[C@H](C(=O)O)Cc3ccc(cc3)OCc3cn2nn3)N(C(=O)[C@@H](NC(=O)[C@H](C)NC)C(C)C)C1)C(C)C [Compound 124] | < 2 | < 0.05 | –
11 | – | CN[C@@H](C)C(=O)N[C@H](C(=O)N1C[C@@H]2C[C@H]1C(=O)N[C@@H](Cc1c[nH]c3ccccc13)C(=O)N[C@H](C(=O)O)Cc1ccc(cc1)OCc1cn(nn1)[C@H]1C[C@@H](C(=O)N[C@@H](Cc3c[nH]c4ccccc34)C(=O)N[C@H](C(=O)O)Cc3ccc(cc3)OCc3cn2nn3)N(C(=O)[C@@H](NC(=O)[C@H](C)NC)C(C)C)C1)C(C)C [Compound 125] | < 2 | < 0.05 | –
12 | – | C=CCOc1ccc(C[C@@H]2NC(=O)[C@@H]3C[C@@H](CN3C(=O)[C@@H](NC(=O)[C@H](C)NC)C(C)C)n3cc(nn3)COc3ccc(cc3)C[C@@H](C(=O)O)NC(=O)[C@H](Cc3ccc(OCC=C)cc3)NC(=O)[C@@H]3C[C@@H](CN3C(=O)[C@@H](NC(=O)[C@H](C)NC)C(C)C)n3cc(nn3)COc3ccc(cc3)C[C@@H](C(=O)O)NC2=O)cc1 [Compound 126] | 2 to 12 | 0.05 to 0.1 | –
13 | – | CN[C@@H](C)C(=O)N[C@H](C(=O)N1C[C@@H]2C[C@H]1C(=O)N[C@@H](Cc1cccc(C(F)(F)F)c1)C(=O)N[C@H](C(=O)O)Cc1ccc(cc1)OCc1cn(nn1)[C@H]1C[C@@H](C(=O)N[C@@H](Cc3cccc(C(F)(F)F)c3)C(=O)N[C@H](C(=O)O)Cc3ccc(cc3)OCc3cn2nn3)N(C(=O)[C@@H](NC(=O)[C@H](C)NC)C(C)(C)C)C1)C(C)(C)C [Compound 129] | < 2 | < 0.05 | –
14 | – | CN[C@@H](C)C(=O)N[C@H](C(=O)N1C[C@@H]2C[C@H]1C(=O)N[C@@H](Cc1cccc(C(F)(F)F)c1)C(=O)N[C@H](C(=O)O)Cc1ccc(cc1)OCc1cn(nn1)[C@H]1C[C@@H](C(=O)N[C@@H](Cc3cccc(C(F)(F)F)c3)C(=O)N[C@H](C(=O)O)Cc3ccc(cc3)OCc3cn2nn3)N(C(=O)[C@@H](NC(=O)[C@H](C)NC)C2CCCCC2)C1)C1CCCCC1 [Compound 130] | 2 to 12 | < 0.05 | –
15 | – | CN[C@@H](C)C(=O)N[C@H](C(=O)N1C[C@@H]2C[C@H]1C(=O)N[C@@H](Cc1ccc(OC)c(OC)c1)C(=O)N[C@H](C(=O)O)Cc1ccc(cc1)OCc1cn(nn1)[C@H]1C[C@@H](C(=O)N[C@@H](Cc3ccc(OC)c(OC)c3)C(=O)N[C@H](C(=O)O)Cc3ccc(cc3)OCc3cn2nn3)N(C(=O)[C@@H](NC(=O)[C@H](C)NC)C(C)(C)C)C1)C(C)(C)C [Compound 131] | 2 to 12 | > 0.1 | –
16 | – | CN[C@@H](C)C(=O)N[C@H](C(=O)N1C[C@@H]2C[C@H]1C(=O)N[C@@H](Cc1ccc(OC)c(OC)c1)C(=O)N[C@H](C(=O)O)Cc1ccc(cc1)OCc1cn(nn1)[C@H]1C[C@@H](C(=O)N[C@@H](Cc3ccc(OC)c(OC)c3)C(=O)N[C@H](C(=O)O)Cc3ccc(cc3)OCc3cn2nn3)N(C(=O)[C@@H](NC(=O)[C@H](C)NC)C2CCCCC2)C1)C1CCCCC1 [Compound 132] | > 12 | > 0.1 | –
17 | – | CN[C@@H](C)C(=O)N[C@H](C(=O)N1C[C@@H]2C[C@H]1C(=O)N[C@@H](Cc1ccccc1)C(=O)N(C)[C@H](C(=O)O)Cc1ccc(cc1)OCc1cn(nn1)[C@H]1C[C@@H](C(=O)N[C@@H](Cc3ccccc3)C(=O)N(C)[C@H](C(=O)O)Cc3ccc(cc3)OCc3cn2nn3)N(C(=O)[C@@H](NC(=O)[C@H](C)NC)C(C)C)C1)C(C)C [Compound 133] | < 2 | < 0.05 | –
18 | – | CN[C@@H](C)C(=O)N[C@H](C(=O)N1C[C@@H]2C[C@H]1C(=O)N[C@@H](Cc1ccc3ccccc3c1)C(=O)N(C)[C@H](C(=O)O)Cc1ccc(cc1)OCc1cn(nn1)[C@H]1C[C@@H](C(=O)N[C@@H](Cc3ccc4ccccc4c3)C(=O)N(C)[C@H](C(=O)O)Cc3ccc(cc3)OCc3cn2nn3)N(C(=O)[C@@H](NC(=O)[C@H](C)NC)C(C)C)C1)C(C)C [Compound 134] | < 2 | 0.05 to 0.1 | –
19 | – | CN[C@@H](C)C(=O)N[C@H](C(=O)N1CC2C[C@H]1C(=O)N[C@@H](Cc1ccc3ccccc3c1)C(=O)N[C@H](C(=O)O)Cc1cn(nn1)[C@H]1C[C@@H](C(=O)N[C@@H](Cc3ccc4ccccc4c3)C(=O)N[C@H](C(=O)O)Cc3cn2nn3)N(C(=O)[C@@H](NC(=O)[C@H](C)NC)C(C)C)C1)C(C)C [Compound 140] | < 2 | < 0.05 | –
20 | – | CN[C@@H](C)C(=O)N[C@H](C(=O)N1C[C@@H]2C[C@H]1C(=O)N[C@@H](Cc1ccccc1)C(=O)N[C@H](C(=O)O)Cc1ccc(cc1)OCc1cn(nn1)[C@H]1C[C@@H](C(=O)N[C@@H](Cc3ccc4ccccc4c3)C(=O)N[C@H](C(=O)O)Cc3ccc(cc3)OCc3cn2nn3)N(C(=O)[C@@H](NC(=O)[C@H](C)NC)C(C)(C)C)C1)C(C)(C)C [Compound 149] | – | < 0.05 | < 2
21 | – | CN[C@@H](C)C(=O)N[C@H](C(=O)N1C[C@@H]2C[C@H]1C(=O)N[C@@H](Cc1ccccc1)C(=O)N[C@H](C(=O)O)Cc1ccc(cc1)OCc1cn(nn1)[C@H]1C[C@@H](C(=O)N[C@@H](Cc3ccc4ccccc4c3)C(=O)N[C@H](C(=O)OC)Cc3ccc(cc3)OCc3cn2nn3)N(C(=O)[C@@H](NC(=O)[C@H](C)NC)C(C)(C)C)C1)C(C)(C)C [Compound 150] | – | 0.05 to 0.1 | < 2

Source: patent US20140309265A1, “MACROCYCLIC COMPOUNDS FOR INHIBITION OF INHIBITORS OF APOPTOSIS” (Ensemble Therapeutics, priority 2011, published 2014)
